pIC50: −log10 of the molar value.
Tests used:
LNCaP cells [1] = test: Anti-proliferative activity on LNCaP in complete medium (WST-1); format: cell-based; details: Homo sapiens, 144 h, 144 h incubation, WST-1 reading, read-out: IC50 on the LNCaP cells in culture (concentration inhibiting the cell proliferation by 50%)
Method: 1. Anti-Proliferative Activity on LNCaP in Complete Medium
The anti-proliferative activity of the compounds of the present invention is determined on LNCaP in complete medium by applying the following experimental procedure:
The LNCaP cell type (ATCC, 1740) originates from a prostate carcinoma expressing the androgen receptor, this line is hormone-dependent.
Maintenance of the LNCaP line is carried out in complete culture medium: RPMI, 10% of foetal calf serum, 2 mM glutamine, 100 U/ml penicillin, 0.1 mg/ml of streptomycin and 0.01M HEPES, 1 mM sodium pyruvate, 40% of D-glucose. • Seeding the plates:
The LNCaP line is seeded at 20,000 cells/well in […] of complete medium in 96-well plates coated with poly-D-lysine (Biocoat, Costar). • Treatment of the cells: 24 h after the seeding, the cells are treated with 10 μl/well of compound diluted in the culture medium. The concentrations used are the following: 1 nM/10/30/100/300/1000/3000/10,000/100,000 nM. The cells are incubated for 144 h at 37° C., 5% CO2. • Reading: After incubation for 6 days, 10 μL of the “WST-1 cell proliferation” reagent (Roche ref 1644807) is added to each well. After incubation for 2 hours at 37° C., 5% CO2, the absorbance at 450 nm is measured by spectrophotometry (Envision, Perkin Elmer). • Results: The experiments are carried out in duplicate and the best compounds are tested twice. A concentration value inhibiting the cell proliferation by 50% (IC50) is calculated.

androgen receptor = biological target: T1, androgen receptor (Homo sapiens, UniProt P10275, T878A); format: cell-based; details: LNCaP cells, 72 hours after treatment, western blot, FIGS. 2 to 10
T1 construct: primary antibody directed against the androgen receptor (AR441, sc-7305, Santa Cruz); host or cells: LNCaP
T1 sequence (P10275 whole entry T878A): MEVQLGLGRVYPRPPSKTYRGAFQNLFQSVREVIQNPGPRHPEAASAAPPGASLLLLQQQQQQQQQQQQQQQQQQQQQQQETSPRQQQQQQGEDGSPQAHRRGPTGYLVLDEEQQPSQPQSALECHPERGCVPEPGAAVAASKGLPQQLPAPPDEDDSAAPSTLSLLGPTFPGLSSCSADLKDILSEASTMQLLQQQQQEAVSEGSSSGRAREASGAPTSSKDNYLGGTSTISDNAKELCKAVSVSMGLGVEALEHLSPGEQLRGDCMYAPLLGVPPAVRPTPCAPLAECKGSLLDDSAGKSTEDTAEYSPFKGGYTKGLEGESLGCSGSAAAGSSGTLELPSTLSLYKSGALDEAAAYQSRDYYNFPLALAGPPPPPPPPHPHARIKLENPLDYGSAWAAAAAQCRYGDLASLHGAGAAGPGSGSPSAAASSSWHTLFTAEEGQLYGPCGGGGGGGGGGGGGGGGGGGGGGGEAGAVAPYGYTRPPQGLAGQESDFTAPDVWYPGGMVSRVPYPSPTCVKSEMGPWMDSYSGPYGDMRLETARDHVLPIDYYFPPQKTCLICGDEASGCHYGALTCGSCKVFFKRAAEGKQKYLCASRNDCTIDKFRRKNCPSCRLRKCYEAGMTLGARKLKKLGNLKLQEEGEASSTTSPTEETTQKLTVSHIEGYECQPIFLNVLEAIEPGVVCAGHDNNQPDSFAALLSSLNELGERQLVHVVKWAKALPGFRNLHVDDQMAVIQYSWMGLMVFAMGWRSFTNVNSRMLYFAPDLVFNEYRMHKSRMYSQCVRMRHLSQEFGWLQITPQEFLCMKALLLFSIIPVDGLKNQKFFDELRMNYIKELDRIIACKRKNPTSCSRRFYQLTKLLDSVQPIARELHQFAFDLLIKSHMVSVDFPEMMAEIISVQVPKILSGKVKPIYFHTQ
Method: The cells of the LNCaP line are seeded at a rate of 2.5 millions of cells per 10 cm Petri dish in RPMI, 10% of foetal calf serum, 2 mM of glutamine, 100 U/ml of penicillin, 0.1 mg/ml of streptomycin and 0.01M HEPES, 1 mM of sodium pyruvate, […]. 4 days later, the cells are treated with the compound to be tested. 72 hours after the treatment the cells are lyzed in lysis buffer (50 mM Tris pH 7.4, 150 mM NaCl, 1 mM EDTA, 20 mM NaF, 100 mM Na2VO3, 0.5% of NP40, 1% of Triton X-100, 1 mM EGTA, Pefabloc, protease inhibitor cocktail 11836170001 RocheDiagnostics, Phosphatase inhibitor cocktail set II Calbiochem). The cells are then scrapped and the lysate transferred into QIAshredder tubes (cat No. 79656 Qiagen) for centrifugation at 13,000 rpm for 15 min at 4° C. The supernatant is transferred into QIAshredder tubes for a second centrifugation at 13,000 rpm for 5 min in order to completely eliminate the DNA filaments. The protein concentration is then determined (Bio-Rad DC protein assay kit) and adjusted so as to load the same quantity of proteins per well (10 and 20 per well depending on the experiments). The loading buffer (sample loading buffer 3×ref 7722 Cell signaling technology) with added 1% beta-mercaptoethanol and 50 mM DTT, is added to the samples which are then heated for 10 min at 90° C. The samples are deposited under a volume of 20 μl on NuPAGE 4-12% Bis-Tris gels (cat No. NP0322BOX, Invitrogen). The migration takes place in MOPS buffer (Invitrogen) and is carried out for 1 hour at 180V. The proteins are transferred onto a nitrocellulose membrane (Hybond ECL RPN78D, GE Healthcare) under semi-dry conditions, in the presence of transfer buffer (NP0006-1, Invitrogen) over 45 min at 15V. The membrane is then blocked for 1 hour in blocking buffer (Non-fat dry milk, cat 170-6404, Biorad) at 5% in Tris Buffer saline (TBS) 0.1% Tween 20. Then it is incubated at 4° C. overnight in the presence of primary antibody directed against the androgen receptor (AR441, sc-7305, Santa Cruz) diluted to 1/2000th in blocking buffer as well as in the presence of primary antibody directed against GAPDH (Cat.MAB374, Millipore) diluted to 1/20,000th in blocking buffer (monitoring of protein load). The membrane is then washed 3 times in washing buffer (TBS, 0.1% Tween 20). The membrane is then incubated in the presence of secondary anti-immunoglobulin mouse antibody coupled with HRP (Goat anti-mouse IgG-HRP, sc 2031, Santa Cruz) diluted to 1/5000th in blocking buffer. The membrane is then washed 3 times in washing buffer.

LNCaP cells [2] = test: Pro- and/or anti-proliferative activity on LNCaP in medium depleted in steroids (WST-1); format: cell-based; details: FIG. 1
Method: 2. Antiproliferative Activity on LNCaP in a Medium Depleted in Steroids:
The pro- and/or anti-proliferative activity of the compounds of the present invention is determined on LNCaP in medium depleted in steroids.
The LNCaP (ATCC, 1740) line originates from a carcinoma of the prostate expressing the androgen receptor, it is hormone-dependent.
The maintenance of the LNCaP line is carried out under the usual conditions in RPMI, 10% of foetal calf serum, 2 mM of glutamine, 100 U/ml of penicillin, 0.1 mg/ml of streptomycin and 0.01M HEPES, 1 mM sodium pyruvate, 40% of D-glucose.
For the study under conditions without steroids, 24 hours before the seeding the culture medium of the cells is eliminated. […]
The LNCaP line is seeded at 20,000 cells/well in 90 μl of RPMI medium with 10% foetal calf serum depleted in steroids in 96-well plates coated with poly-D-lysine (Biocoat, Costar). • Treatment of the cells: 24 h after seeding, the cells are treated with 10 μl/well of compound diluted in the culture medium. […] The cells are incubated for 144 h at 37° C., 5% CO2. • Reading: After incubation for 6 days, 10 μL of cell proliferation reagent WST-1 (Roche ref 1644807) is added to each well. […]

LNCaP cells [3] = details: medium depleted in steroids; stated 'as described previously' (Veldscholte 1992); cited from earlier work

SMILES	pIC50 (LNCaP cells [1])	effect on protein expression of the androgen receptor (androgen receptor)	further results
Cc1cc(N2C(=O)N(CCCCCN3C(=O)N(c4ccc([N+](=O)[O-])c(C)c4)C(=O)C3(C)C)C(C)(C)C2=O)ccc1[N+](=O)[O-] [Example 10, 1,1′-pentane-1,5-diylbis[5,5-dimethyl-3-(3-methyl-4-nitrophenyl)imidazolidine-2,4-dione]]	> 5.82	reduce protein expression of the androgen receptor	
CC1(C)C(=O)N(c2ccc([N+](=O)[O-])c(C(F)(F)F)c2)C(=O)N1CCCCCN1C(=O)N(c2ccc([N+](=O)[O-])c(C(F)(F)F)c2)C(=O)C1(C)C [Example 2, 1,1′-pentane-1,5-diylbis{5,5-dimethyl-3-[4-nitro-3-(trifluoromethyl)phenyl]imidazolidine-2,4-dione}]		reduce protein expression of the androgen receptor	inhibitory activity on cell proliferation of LNCaP cultured in medium depleted in steroids (LNCaP cells [2]): visible inhibitory activity at low concentrations
COc1cc(N2C(=O)N(CCCCCN3C(=O)N(c4ccc([N+](=O)[O-])c(OC)c4)C(=O)C3(C)C)C(C)(C)C2=O)ccc1[N+](=O)[O-] [Example 13, 1,1′-pentane-1,5-diylbis[3-(3-methoxy-4-nitrophenyl)-5,5-dimethyl-imidazolidine-2,4-dione]]	> 5.82		
CC1(C)C(=O)N(c2ccc(C#N)c(C(F)(F)F)c2)C(=O)N1C/C=C\CN1C(=O)N(c2ccc(C#N)c(C(F)(F)F)c2)C(=O)C1(C)C [Example 21, 4,4′-[(2Z)-but-2-ene-1,4-diylbis(4,4-dimethyl-2,5-dioxoimidazolidine-3,1-diyl)]bis[2-(trifluoromethyl)benzonitrile]]		reduce protein expression of the androgen receptor	
CC1(C)C(=O)N(c2ccc([N+](=O)[O-])c(C(F)(F)F)c2)C(=O)N1CCCCCCCN1C(=O)N(c2ccc([N+](=O)[O-])c(C(F)(F)F)c2)C(=O)C1(C)C [Example 4, 1,1′-heptane-1,7-diylbis{5,5-dimethyl-3-[4-nitro-3-(trifluoromethyl)phenyl]imidazolidine-2,4-dione}]	> 5.82		
CC1(C)C(=O)N(c2ccc([N+](=O)[O-])c(C(F)(F)F)c2)C(=O)N1CCOCCN1C(=O)N(c2ccc([N+](=O)[O-])c(C(F)(F)F)c2)C(=O)C1(C)C [Example 7, 1,1′-(oxydiethane-2,1-diyl)bis{5,5-dimethyl-3-[4-nitro-3-(trifluoromethyl)-phenyl]imidazolidine-2,4-dione}]		reduce protein expression of the androgen receptor	
CC1(C)NC(=O)N(c2ccc([N+](=O)[O-])c(C(F)(F)F)c2)C1=O [nilutamide]			agonist / inhibitory activity of nilutamide on LNCaP proliferation (LNCaP cells [3]): agonist activity at low concentrations, then an inhibitory activity at high concentrations
Cc1cc(N2C(=O)N(CCCCCN3C(=O)N(c4ccc(C#N)c(C)c4)C(=O)C3(C)C)C(C)(C)C2=O)ccc1C#N [Example 15, 4,4′-[pentane-1,5-diylbis(4,4-dimethyl-2,5-dioxoimidazolidine-3,1-diyl)]bis(2-methylbenzonitrile)]		reduce protein expression of the androgen receptor	
CC1(C)C(=O)N(c2ccc([N+](=O)[O-])c(C(F)(F)F)c2)C(=O)N1C/C=C\CN1C(=O)N(c2ccc([N+](=O)[O-])c(C(F)(F)F)c2)C(=O)C1(C)C [Example 19, 1,1′-(2Z)-but-2-ene-1,4-diylbis{5,5-dimethyl-3-[4-nitro-3-(trifluoromethyl)phenyl]imidazolidine-2,4-dione}]		reduce protein expression of the androgen receptor	inhibitory activity on cell proliferation of LNCaP cultured in medium depleted in steroids (LNCaP cells [2]): visible inhibitory activity at low concentrations
CC1(C)C(=O)N(c2ccc(C#N)c(C(F)(F)F)c2)C(=O)N1C[C@@H]1O[C@@H]1CN1C(=O)N(c2ccc(C#N)c(C(F)(F)F)c2)C(=O)C1(C)C [Example 22, 4,4′-{(2R,3S)-oxirane-2,3-diylbis[methanediyl(4,4-dimethyl-2,5-dioxoimidazolidine-3,1-diyl)]}bis[2-(trifluoromethyl)benzonitrile]]		reduce protein expression of the androgen receptor	
CC1(C)C(=O)N(c2ccc(C#N)c(Cl)c2)C(=O)N1CCCCCN1C(=O)N(c2ccc(C#N)c(Cl)c2)C(=O)C1(C)C [Example 16, 4,4′-[pentane-1,5-diylbis(4,4-dimethyl-2,5-dioxoimidazolidine-3,1-diyl)]bis(2-chlorobenzonitrile)]	> 5.82	reduce protein expression of the androgen receptor	
COC(=O)Nc1ccc(N2C(=O)N(CCCCCN3C(=O)N(c4ccc(NC(=O)OC)c(C)c4)C(=O)C3(C)C)C(C)(C)C2=O)cc1C [Example 14, dimethyl{pentane-1,5-diylbis[(4,4-dimethyl-2,5-dioxoimidazolidine-3,1-diyl)(2-methyl-4,1-phenylene)]}biscarbamate]	> 5.82		
